The data set can be described thus: in vitro. The note with it: rat, gh3-tre-luc cells.

SMILES strings stand for the structures. Where a name gives a salt, the structure may show the parent alone.

Consider 72 compounds from paper PMC6792352, “Limited Chemical Structural Diversity Found to Modulate Thyroid Hormone Receptor in the Tox21 Chemical Library” (Environmental Health Perspectives, 2019).

As usually defined, the CC50 is the concentration that lowers cell viability or growth by half. High values mean lower toxicity to the cells, low ones greater toxicity to the cells. For the compound `CC1(C)S[C@@H]2[C@H](NC(=O)C(C(=O)O)c3ccccc3)C(=O)N2[C@H]1C(=O)O` (some centres unmarked) [Carbenicillin disodium], the 50% cytotoxic concentration (CC50) at 24 h (AC50 (uM) modified / 1000) is more than 50 µM. Same read-out and setting: as for `CN(C)/N=N/c1[nH]cnc1C(N)=O` [Dacarbazine], the figure is more than 90 µM. As to `COP(=O)(OC)OC=C(Cl)Cl` [Dichlorvos], the CC50 at 24 h is, setting by setting: (AC50 (uM) modified / 1000, Tox21_110001=Tox21_111052, viability, 1 nM T3 present, 24 h) more than 50 µM; (AC50 (uM) modified / 1000, Tox21_110001=Tox21_201617, viability, 1 nM T3 present, 24 h) more than 90 µM. For the compound `COc1ccccc1OCC(O)CN1CCN(CC(=O)Nc2c(C)cccc2C)CC1` (centres unmarked) [Ranolazine], the CC50 at 24 h (AC50 (uM) modified / 1000) is more than 50 µM. Same read-out and setting: the value for `NC(=O)c1ccccc1N` [2-Aminobenzamide] was more than 90 µM. For the compound `O=CC(Br)(Br)Br` [Tribromoacetaldehyde], under “AC50 (uM) modified / 1000, Tox21_110001=Tox21_200535, viability, 1 nM T3 present, 24 h”, the CC50 at 24 h amounted to 25.5 µM. `Cc1[nH]c(=O)c(C#N)cc1-c1ccc2nccn2c1` [Olprinone hydrochloride] displayed a CC50 at 24 h (AC50 (uM) modified / 1000) of more than 50 µM. Turning to `COc1ccc(-c2ccccc2)cc1NNC(=O)OC(C)C` [Bifenazate], the CC50 at 24 h (AC50 (uM) modified / 1000) was 87.4 µM. Still for that read-out and setting: the value for `CC(=O)CCC(=O)O` [4-Oxopentanoic acid] was more than 100 µM; that for `COC(C)(C)OC` [2,2-Dimethoxypropane] was more than 90 µM. Same read-out and setting: as for `O=C(O)c1cc2ccccc2cc1O` [3-Hydroxy-2-naphthoic acid], the figure is more than 90 µM. Same read-out and setting: the value for `CN1CCC(OC(c2ccccc2)c2ccccc2)CC1` [Diphenylpyraline hydrochloride] was more than 20 µM; that for `CC(N)[C@]12C[C@H]3C[C@H](C[C@H](C3)C1)C2` (some centres unmarked) [Rimantadine hydrochloride] was more than 50 µM.

As for `CC(C)CON=O` [Isobutyl nitrite], the 50% cytotoxic concentration (CC50) at 24 h (AC50 (uM) modified / 1000, Tox21_110001=Tox21_202411, viability, 1 nM T3 present, 24 h) is more than 90 µM and the half-maximal cytotoxic concentration (CC50) at 24 h (AC50 (uM) modified / 1000, Tox21_110001=Tox21_302863, viability, 1 nM T3 present, 24 h) was more than 30 µM. Under “AC50 (uM) modified / 1000”, `SC1CCCCC1` [Cyclohexanethiol] returned a CC50 at 24 h of more than 100 µM. Still for that read-out and setting: the value for `N[C@@H](Cc1ccc(O)c(O)c1)C(=O)O` [L-Dopa] was more than 50 µM; that for `CCOC(=O)NC(O)C(Cl)(Cl)Cl` (centres unmarked) [Carbocloral] was more than 50 µM. On the same count and under the same terms, as for `OC[C@@H](O)[C@@H](O)[C@H](O)[C@H](O)CO` [D-Mannitol], the figure is more than 90 µM; as for `CC(=O)OC(OC(C)=O)c1ccc([N+](=O)[O-])o1` [5-Nitro-2-furanmethanediol diacetate], 14 µM.

With `CC(C)C/C=C(/C=O)c1ccccc1` [5-Methyl-2-phenyl-2-hexenal], the midpoint of cytotoxicity (AC50 (uM) modified / 1000), the CC50 at 24 h, lay at 64.6 µM. Turning to `COP(=S)(Oc1cc(Cl)c(Br)cc1Cl)c1ccccc1` (centres unmarked) [Leptophos], where the note is “AC50 (uM) modified / 1000, Tox21_110001=Tox21_301903, viability, 1 nM T3 present, 24 h”, the midpoint of cytotoxicity, the CC50 at 24 h, lay at 72.3 µM. For the compound `NC(=O)Cc1cccc2ccccc12` [1-Naphthaleneacetamide], the half-maximal cytotoxic concentration (CC50) at 24 h (AC50 (uM) modified / 1000) is more than 90 µM. Compound `N#CCCSCCC#N` [3,3'-Thiodipropionitrile] gave a CC50 at 24 h (AC50 (uM) modified / 1000) of more than 90 µM. Still for that read-out and setting: the value for `N#C/C(=C1/SCC(c2ccccc2Cl)S1)n1ccnc1` (centres unmarked) [Lanoconazole] was more than 50 µM; that for `CCC(=O)OCc1ccc(OC)cc1` [Anisyl propionate] was more than 90 µM; that for `O=C(O)c1ccccc1C(=O)Nc1ccc(S(=O)(=O)Nc2nccs2)cc1` [Phthalylsulfathiazole] was more than 50 µM. The same measure, in the same setting: the value for `C=CCOC(=O)COCCC(C)C` [Prop-2-en-1-yl (3-methylbutoxy)acetate] was more than 90 µM; that for `Cc1ccc2c(c1)CCCN2` [6-Methyl-1,2,3,4-tetrahydroquinoline] was more than 90 µM; that for `CCC(C)(C)C1CCC(=O)CC1` [4-(tert-Pentyl)-cyclohexanone] was more than 90 µM. `CCOC(=O)c1cc(-c2ccccc2)nc2ccc(C)cc12` [Neocinchophen]: the midpoint of cytotoxicity (AC50 (uM) modified / 1000), the CC50 at 24 h, lay at 44.6 µM. Consider `CC1(C)C[C@@H]1C(=O)N/C(=C\CCCCSC[C@H](N)C(=O)O)C(=O)O` [Cilastatin sodium], for which, where the note is “AC50 (uM) modified / 1000”, the CC50 at 24 h is more than 50 µM. Where the note is “AC50 (uM) modified / 1000”, `CCCCC(F)(F)[C@@]1(O)CC[C@H]2[C@@H](CC(=O)[C@@H]2CCCCCCC(=O)O)O1` [Lubiprostone] yielded a half-maximal cytotoxic concentration (CC50) at 24 h of more than 50 µM.

`CC1CCCC(=O)C1=O` (centres unmarked) [3-Methylcyclohexane-1,2-dione] gave a CC50 at 24 h (AC50 (uM) modified / 1000) of more than 90 µM. Same read-out and setting: as for `C=C1c2cccc(O)c2C(O)=C2C(=O)[C@]3(O)C(O)=C(C(N)=O)C(=O)[C@@H](N(C)C)[C@@H]3[C@@H](O)[C@H]12` [Methacycline hydrochloride], the figure is more than 20 µM; as for `CC1(C)C(/C=C/C=C/C=C/C=C2\N(CCCCS(=O)(=O)O)c3ccc4ccccc4c3C2(C)C)=[N+](CCCCS(=O)(=O)[O-])c2ccc3ccccc3c21` [Indocyanine green], 19.5 µM. With `CCCC1CCCC(=O)O1` (centres unmarked) [delta-Octanolactone], the CC50 at 24 h (AC50 (uM) modified / 1000) was more than 90 µM. Compound `CNC(=O)Oc1cc(C)c(N(C)C)c(C)c1` [Mexacarbate] registered a CC50 at 24 h (AC50 (uM) modified / 1000, Tox21_110001=Tox21_200649, viability, 1 nM T3 present, 24 h) of more than 90 µM. On to `CC(C)COC(=O)c1ccccc1` [Isobutyl benzoate], for which, where the note is “AC50 (uM) modified / 1000”, the CC50 at 24 h was more than 90 µM. Still for that read-out and setting: as for `N#CCCCCC#N` [Hexanedinitrile], the figure is more than 90 µM. Regarding `O=c1[nH]c(=O)n([C@H]2C[C@H](O)[C@@H](CO)O2)cc1Br` [5-Bromo-2'-deoxyuridine], under “AC50 (uM) modified / 1000”, the CC50 at 24 h is more than 90 µM.

Take `C=C(C)C(=O)OCCOCCOC(=O)C(=C)C` [Di(ethylene glycol) dimethacrylate]: the CC50 at 24 h (AC50 (uM) modified / 1000) is more than 90 µM. The same measure, in the same setting: as for `CCCCN(N=O)C(=N)N[N+](=O)[O-]` [N-Butyl-N'-nitro-N-nitrosoguanidine], the figure is 56.4 µM; as for `Cc1c(C)c2c(c(C)c1OC(=O)c1cccnc1)CC[C@@](C)(CCC[C@H](C)CCC[C@H](C)CCCC(C)C)O2` (racemic) [DL-alpha Tocopheryl nicotinate], more than 50 µM.

Turning to `N#Cc1ccc(N(CC(N)=O)CC(F)(F)F)cc1C(F)(F)F` [GSK232420A], the half-maximal cytotoxic concentration (CC50) at 24 h (AC50 (uM) modified / 1000, Tox21_110001=Tox21_300220, viability, 1 nM T3 present, 24 h) is more than 90 µM. Compound `CN(C)C(=O)Oc1cc(OC(=O)N(C)C)cc(C(O)CNC(C)(C)C)c1` (centres unmarked) [Bambuterol hydrochloride] came in with a 50% cytotoxic concentration (CC50) at 24 h (AC50 (uM) modified / 1000) of more than 20 µM. Same read-out and setting: the value for `CN1[C@@H](CC(=O)c2ccccc2)CCC[C@H]1C[C@H](O)c1ccccc1` [Lobeline] was more than 50 µM; that for `O=C(O)c1cccc(Cl)n1` [6-Chloro-2-picolinic acid] was more than 90 µM; that for `O=C(O)c1cccc(Cl)c1Cl` [2,3-Dichlorobenzoic acid] was more than 90 µM. The compound `O=[N+]([O-])NC1=NCCN1Cc1ccc(Cl)nc1` [Imidacloprid] displayed a CC50 at 24 h (AC50 (uM) modified / 1000) of more than 90 µM. Regarding `CC(COc1ccccc1)NN` (centres unmarked) [Phenoxypropazine], the CC50 at 24 h (AC50 (uM) modified / 1000) is more than 50 µM. On the same count and under the same terms, the value for `COCC(=O)N(c1c(C)cccc1C)C(C)C(=O)OC` (centres unmarked) [Metalaxyl] was more than 90 µM.

On to `COc1cc(S(=O)(=O)Nc2ccccc2)c(OC)cc1N` [4-Amino-2,5-dimethoxy-N-phenylbenzenesulfonamide], for which, under “AC50 (uM) modified / 1000”, the CC50 at 24 h is more than 90 µM.

On to `O=S(=O)(O)CCCS(=O)(=O)O` [Disodium propane-1,3-disulfonate], for which the CC50 at 24 h (AC50 (uM) modified / 1000) was more than 50 µM. `O=C(Cn1cnnn1)N[C@@H]1C(=O)N2C(C(=O)O)=C(CSc3nncs3)CS[C@H]12` [Ceftezole sodium] returned a CC50 at 24 h (AC50 (uM) modified / 1000) of more than 50 µM. Under “AC50 (uM) modified / 1000”, `O=C(O)CN1C(=O)c2cccc3cccc(c23)C1=O` [Alrestatin] gave a CC50 at 24 h of more than 50 µM. The same measure, in the same setting: the value for `CCOC(=O)/C=C/C(=O)OCC` [Diethyl (2E)-but-2-enedioate] was more than 90 µM; that for `NC(=O)c1cccnc1` [Niacinamide] was more than 90 µM. Still for that read-out and setting: as for `NC(=O)N1c2ccccc2CC(=O)c2ccccc21` [Oxcarbazepine], the figure is 14.5 µM; as for `COC(=O)CCC(=O)O` [Monomethyl succinate], more than 90 µM. As for `Cc1ccc(C(C)c2ccc(C)c(C)c2)cc1C` [1,1-Bis(3,4-dimethylphenyl)ethane], for the setting “AC50 (uM) modified / 1000”, the CC50 at 24 h was more than 90 µM. Regarding `CC(C)(C)c1cc(CCC(=O)OCC(COC(=O)CCc2cc(C(C)(C)C)c(O)c(C(C)(C)C)c2)(COC(=O)CCc2cc(C(C)(C)C)c(O)c(C(C)(C)C)c2)COC(=O)CCc2cc(C(C)(C)C)c(O)c(C(C)(C)C)c2)cc(C(C)(C)C)c1O` [Irganox 1010], the CC50 at 24 h (AC50 (uM) modified / 1000) is more than 40 µM. The compound `O=c1cc(-c2ccccc2)oc2cc(O)cc(O)c12` [Chrysin] yielded a CC50 at 24 h (AC50 (uM) modified / 1000) of 62.4 µM. Under “AC50 (uM) modified / 1000”, `COS(=O)(=O)OC` [Dimethyl sulfate] came in with a CC50 at 24 h of more than 90 µM. The same measure, in the same setting: the value for `O=C1Nc2ccc(Cl)cc2C(c2ccccc2Cl)=NC1O` (centres unmarked) [Lorazepam] was more than 50 µM; that for `CCCCCCCCCC(=O)OC` [Methyl decanoate] was more than 90 µM; that for `Cc1cc(NC(=O)C(=O)O)cc(C)c1Oc1ccc(O)c2c1CCC2` [CP-634384] was more than 90 µM. Still for that read-out and setting: the value for `CN(C)CC[C@@H](c1ccc(Br)cc1)c1ccccn1` [Dexbrompheniramine maleate] was 26.6 µM. For `O=Cc1cccc(Oc2ccccc2)c1` [3-Phenoxybenzaldehyde], the 50% cytotoxic concentration (CC50) at 24 h (AC50 (uM) modified / 1000, Tox21_110001=Tox21_202368, viability, 1 nM T3 present, 24 h) is more than 90 µM. Consider `OCCOc1ccccc1` [2-Phenoxyethanol], for which the CC50 at 24 h (AC50 (uM) modified / 1000) is more than 90 µM. The same measure, in the same setting: the value for `C=CC(C)(C)CC(=O)OC` [Methyl 3,3-dimethylpent-4-enoate] was more than 90 µM; that for `C=CCS(=O)(=O)O` [2-Propene-1-sulfonic acid, sodium salt] was more than 90 µM. Still for that read-out and setting: as for `CCCCCCCCCCCCCCCC(=O)OC[C@@H](NC(=O)C(Cl)Cl)[C@H](O)c1ccc([N+](=O)[O-])cc1` [Chloramphenicol palmitate], the figure is more than 50 µM.
